# Results taken from US20260184712A1, “Heterocyclic Compounds as ENT Inhibitors and Compounds for Use in the Treatment of Cancers” (iTeos Belgium SA, priority 2022, published 2026).
# Biological target: T1, human ENT1 (Homo sapiens, UniProt Q99808)
# T1 construct: JAR cells expressing ENT1 were purchased from ATCC; host or cells: JAR cells
# T1 sequence (Q99808 1-456): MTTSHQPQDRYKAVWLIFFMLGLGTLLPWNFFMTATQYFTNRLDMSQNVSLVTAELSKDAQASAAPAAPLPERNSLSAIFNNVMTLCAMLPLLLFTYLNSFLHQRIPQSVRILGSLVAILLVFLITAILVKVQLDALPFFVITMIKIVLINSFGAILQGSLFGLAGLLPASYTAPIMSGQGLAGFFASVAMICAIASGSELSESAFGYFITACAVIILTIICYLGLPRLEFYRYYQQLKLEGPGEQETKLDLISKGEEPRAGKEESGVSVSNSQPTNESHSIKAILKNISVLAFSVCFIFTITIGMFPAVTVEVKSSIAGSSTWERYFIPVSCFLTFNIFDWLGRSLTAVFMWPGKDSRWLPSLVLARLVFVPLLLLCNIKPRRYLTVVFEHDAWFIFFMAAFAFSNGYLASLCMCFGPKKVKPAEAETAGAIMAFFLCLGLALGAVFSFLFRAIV
# Assay: ENT1 binding assay (competition with Sahenta-DY647 on JAR cells)
# Details: Binding Assay IC50, competition with SAHENTA-DY647 binding; IC50 categorized
# Procedure: Compounds of the present disclosure were assayed to show ability to bind to human ENT1. The assay is a competition between a compound of interest and Sahenta-DY647, an ENT1 inhibitor that emits fluorescence (Ex=630 nm, Em=670 nm). By measuring the fluorescence at the end of the assay, one can assess the binding potency of the compounds tested. The compounds of the present disclosure were tested and compared to known ENT inhibitors, dilazep and NBMPR:
# JAR cells expressing ENT1 were purchased from ATCC® (HTB-144TM). Cells were cultured in RPMI 1640 medium (LONZA®, #BE12-702F/U1) supplemented with 10% FBS (GIBCO®, #10270-106), 10 mM Hepes (LONZA®, #BE17-737E), 1 mM Sodium Pyruvate (LONZA®, #BE13-115E), and 2% Penicillin/Streptomycin (LONZA®, #DE17-603E) at 37° C. and 5% CO2.
# The assay was conducted with the following buffer on the day of the assay: HBSS (LONZA®, #LO-527F) supplemented with 10 mM Hepes (LONZA®, #BE17-737E) and 0.1% BSA (Miltenyi®, #130-091-376).
# JAR cells were resuspended in the described buffer. The compounds of interest and Sahenta-DY647 were diluted 200× with the described buffer.
# A total of 50,000 cells were pre-incubated for 30 min at 4° C. with the compounds of the present disclosure before adding the corresponding amount of Sahenta-DY647 (100 nM) to the minimal concentration at Bmax and incubating for an additional 30 min at 4° C. The total volume of the reaction was 100 μL (50 μL of cells, 25 μL of the compounds of the present disclosure, and 25 μL of Sahenta-DY647) in a U-bottom 96 well plate (Greiner®, #650-180). The plates were washed 2× by centrifugation (4 min, 400 rcf at 4° C.) in the same buffer. Cells were re-suspended in 70 μL of the buffer and 50 μL was transferred to a Black 384 Optiplate (PerkinElmer®, #6007279). Fluorescence (Ex=630 nm, Em=670 nm) was acquired on a Spectramax i3x (Molecular Devices®).
# Dose-response data from the compounds were analyzed with Graphpad Prism 9.1.1@software, using nonlinear regression applied to a sigmoidal dose-response model and the following equation:
# Y=Bottom+(Top-Bottom)/(1+10^((LogIC50−X)*HillSlope)), with a shared bottom and top between the test reagent and dipyridamole.
# Data from multiple experiments were compiled by taking the average pIC50 value for the reagent in question±the standard deviation (s.d.) and expressing it as an average IC50 value in nM.
# The inhibitory effect of the test compound was expressed as a percentage of the inhibition of SAHENTA-DY647 binding.
row,SMILES,IC50 [µM]
1,C[C@H]1O[C@@H](n2cnc3c(SCc4ccccc4)ncnc32)[C@H](O)[C@@H]1O [Compound 224],> 0.5

# Same assay, conditions: competition with SAHENTA-DY647 binding; IC50 categorized; read-out: Binding Assay IC50
row,IC50 [µM],SMILES
1,0.001 to 0.02,CCNc1nc2c(OCc3ccc(C#N)cc3)ncnc2n1[C@@H]1O[C@H](C)[C@@H](O)[C@H]1O [Compound 37]
2,> 0.5,C[C@H]1O[C@@H](n2cnc3c(-c4nc(-c5ccc([N+](=O)[O-])cc5)no4)ncnc32)[C@H](O)[C@@H]1O [Compound 420]
3,> 0.5,C[C@H]1O[C@@H](n2cnc3c(C(=O)NCc4ccc(C#N)c(F)c4)ncnc32)[C@H](O)[C@@H]1O [Compound 369]
4,> 0.5,C[C@H]1O[C@@H](n2cnc3c(OCc4c(F)cc(C#N)cc4F)ncnc32)[C@H](O)[C@@H]1O [Compound 269]
5,> 0.5,C[C@H]1O[C@@H](n2cnc3c(-c4noc(-c5ccc([N+](=O)[O-])cc5)n4)ncnc32)[C@H](O)[C@@H]1O [Compound 421]
6,> 0.5,C[C@H]1O[C@@H](n2cnc3c(OCCc4ccc(Cl)cc4)ncnc32)[C@H](O)[C@@H]1O [Compound 293]
7,< 0.001,C[C@H]1O[C@@H](n2c(Nc3cnn(C)c3)nc3c(N4CCc5ccc([N+](=O)[O-])cc5C4)ncnc32)[C@H](O)[C@@H]1O [Compound 142]
8,> 0.5,Cc1nnc(CSc2ncnc3c2ncn3[C@@H]2O[C@H](C)[C@@H](O)[C@H]2O)o1 [Compound 398]
9,0.001 to 0.02,C[C@H]1O[C@@H](n2c(NC3CCOCC3)nc3c(N4CCc5ccc([N+](=O)[O-])cc5C4)ncnc32)[C@H](O)[C@@H]1O [Compound 148]
10,0.02 to 0.5,C[C@H]1C[C@@H](n2cnc3c(SCc4ccc([N+](=O)[O-])cc4)ncnc32)[C@H](O)[C@@H]1O [Compound 214]
11,> 0.5,C[C@H]1O[C@@H](n2cnc3c(OCCc4ccc(OCF)cc4)ncnc32)[C@H](O)[C@@H]1O [Compound 343]
12,> 0.5,C[C@H]1O[C@@H](n2cnc3c(OCCc4ccc(OC(F)(F)F)cc4)ncnc32)[C@H](O)[C@@H]1O [Compound 241]
13,0.02 to 0.5,C[C@H]1O[C@@H](n2c(Nc3cnn(C)c3)nc3c(OCc4ccc(C#N)cc4)ncnc32)[C@H](O)[C@@H]1O [Compound 63]
14,> 0.5,C[C@H]1O[C@@H](n2cnc3c(OCc4ccc(-n5ccnc5)cc4)ncnc32)[C@H](O)[C@@H]1O [Compound 316]
15,< 0.001,C[C@H]1O[C@@H](n2c(N[C@H]3C[C@](C)(O)C3)nc3c(OCc4ccc(C#N)cc4)ncnc32)[C@H](O)[C@@H]1O [Compound 120]
16,> 0.5,COc1ccccc1COc1ncnc2c1ncn2[C@@H]1O[C@H](C)[C@@H](O)[C@H]1O [Compound 325]
17,> 0.5,C[C@H]1O[C@@H](n2cnc3c(SCc4ncc(F)cc4F)ncnc32)[C@H](O)[C@@H]1O [Compound 337]
18,> 0.5,"Cc1cn(C2OC(C)C(O)C2O)c2ncnc(SCc3ccc([N+](=O)[O-])cc3)c12 (single isomer, unassigned) [Compound 286]"
19,> 0.5,C[C@H]1O[C@@H](n2cnc3c(OCCc4ccc(S(C)(=O)=O)cc4)ncnc32)[C@H](O)[C@@H]1O [Compound 344]
20,0.02 to 0.5,C[C@H]1O[C@@H](n2c(NC3CCOCC3)nc3c(N4CCc5ccccc5C4)ncnc32)[C@H](O)[C@@H]1O [Compound 170]
21,0.02 to 0.5,C[C@H]1O[C@@H](n2c(NC3CCCC3)nc3c(OCc4ccc(C(F)(F)F)nc4)ncnc32)[C@H](O)[C@@H]1O [Compound 93]
22,> 0.5,C[C@H]1O[C@@H](n2cnc3c(=O)n(Cc4ccc([N+](=O)[O-])cc4)ccc32)[C@H](O)[C@@H]1O [Compound 415]
23,0.001 to 0.02,C[C@H]1O[C@@H](n2c(NC3CCCC3)nc3c(OCc4ccc(C(F)(F)F)cc4)ncnc32)[C@H](O)[C@@H]1O [Compound 92]
24,> 0.5,OC[C@@H]1C[C@@H](O)[C@H](n2cnc3c(OCc4ccc(OC(F)F)cc4)ncnc32)O1 [Compound 303]

row,IC50 [µM],SMILES
1,< 0.001,C[C@H]1O[C@@H](n2c(Nc3cn[nH]c3)nc3c(OCc4ccc([N+](=O)[O-])cc4)ncnc32)[C@H](O)[C@@H]1O [Compound 35]
2,> 0.5,C[C@H]1O[C@@H](n2cnc3c(OCCc4ccc(C#N)cn4)ncnc32)[C@H](O)[C@@H]1O [Compound 402]
3,0.02 to 0.5,CC(C)Nc1nc2c(N3CCc4ccccc4C3)ncnc2n1[C@@H]1O[C@H](C)[C@@H](O)[C@H]1O [Compound 212]
4,> 0.5,C[C@H]1O[C@@H](n2cnc3c(OCc4ccccc4-n4cccn4)ncnc32)[C@H](O)[C@@H]1O [Compound 358]
5,0.02 to 0.5,C[C@H]1O[C@@H](n2c(-c3cn[nH]c3)nc3c(OCc4ccc([N+](=O)[O-])cc4)ncnc32)[C@H](O)[C@@H]1O [Compound 208]
6,> 0.5,C[C@H]1O[C@@H](n2cnc3c(-n4cc(-c5ccc([N+](=O)[O-])cc5)nn4)ncnc32)[C@H](O)[C@@H]1O [Compound 416]
7,< 0.001,"CC1OC(n2c(NC3CC(C)(O)C3)nc3c(OCc4ccc([N+](=O)[O-])cc4)ncnc32)C(O)C1O (single isomer, unassigned) [Compound 134]"
8,< 0.001,C[C@H]1O[C@@H](n2c(NC3CCC(O)CC3)nc3c(OCc4ccc(C#N)cc4)ncnc32)[C@H](O)[C@@H]1O (stereo partly shown) [Compound 52]
9,0.02 to 0.5,C[C@H]1O[C@@H](n2c(NCc3ncn(C)n3)nc3c(OCc4ccc(C#N)cc4)ncnc32)[C@H](O)[C@@H]1O [Compound 69]
10,> 0.5,C[C@H]1O[C@@H](n2cnc3c(SCc4ccc(S(=O)(=O)N(C)C)cc4)ncnc32)[C@H](O)[C@@H]1O [Compound 366]
11,> 0.5,C[C@H]1O[C@@H](n2cnc3c(OCc4ccc(C#N)cc4)nc(Cl)nc32)[C@H](O)[C@@H]1O [Compound 244]
12,> 0.5,Cc1cc(CSc2ncnc3c2ncn3[C@@H]2O[C@H](C)[C@@H](O)[C@H]2O)no1 [Compound 348]
13,> 0.5,C[C@H]1O[C@@H](n2cnc3c(C(=O)NCc4ccc(C(F)(F)F)cc4)ncnc32)[C@H](O)[C@@H]1O [Compound 298]
14,0.001 to 0.02,C[C@H]1O[C@@H](n2c(NC3CCCC3)nc3c(OCc4ccc(Cl)cc4)ncnc32)[C@H](O)[C@@H]1O [Compound 91]
15,0.001 to 0.02,C[C@H]1O[C@@H](n2c(N[C@H]3CC[C@@](C)(O)CC3)nc3c(OCc4ccc(C#N)cc4)ncnc32)[C@H](O)[C@@H]1O [Compound 131]
16,> 0.5,Cc1nc2ccc(COc3ncnc4c3ncn4[C@@H]3O[C@H](C)[C@@H](O)[C@H]3O)cc2o1 [Compound 338]
17,0.02 to 0.5,C[C@H]1O[C@@H](n2c(N)nc3c(OCc4ccc([N+](=O)[O-])cc4)ncnc32)[C@H](O)[C@@H]1O [Compound 4]
18,> 0.5,C[C@H]1O[C@@H](n2cnc3c(C(=O)N4CC(c5ccc([N+](=O)[O-])cc5)C4)ncnc32)[C@H](O)[C@@H]1O [Compound 266]
19,> 0.5,CC(C)Oc1cccc(CSc2ncnc3c2ncn3[C@@H]2O[C@H](C)[C@@H](O)[C@H]2O)c1 [Compound 365]
20,0.001 to 0.02,C[C@H]1O[C@@H](n2c(NCC3CCOCC3)nc3c(OCc4ccc(C#N)cc4)ncnc32)[C@H](O)[C@@H]1O [Compound 109]
21,> 0.5,C[C@H]1O[C@@H](n2cnc3c(SCc4ncccn4)ncnc32)[C@H](O)[C@@H]1O [Compound 394]
22,> 0.5,C[C@H]1O[C@@H](n2cnc3c(OCCc4ccc(OCF)nc4)ncnc32)[C@H](O)[C@@H]1O [Compound 336]
23,< 0.001,C[C@H]1O[C@@H](n2c(N[C@H]3CCC(F)(F)C3)nc3c(OCc4ccc([N+](=O)[O-])cc4)ncnc32)[C@H](O)[C@@H]1O [Compound 84]
24,> 0.5,Cc1cc(Cl)ccc1COc1ncnc2c1ncn2[C@@H]1O[C@H](C)[C@@H](O)[C@H]1O [Compound 235]
